{
  "source": "patent US20180042923A1",
  "about": "“COMBINATIONS COMPRISING BREXPIPRAZOLE OR A SALT THEREOF AND A SECOND DRUG FOR USE IN THE TREATMENT OF A CNS DISORDER” (priority 2011, published 2018)",
  "key": {"ddY male mice": {"test_system": "ddY male mice", "experiment": "Forced swimming test in mice (antidepressant action)", "format": "in vivo", "description": "When an antidepressant is administered in advance, the immobility time is shortened. The shortened immobility time is used as an index of an antidepressant action to be evaluated. This test method is widely used as an experimental animal model reflecting the clinical antidepressant effect.\nIn this test, the action of a combined use of 7-[4-(4-benzo[b]thiophen-4-yl-piperazin-1-yl)butoxy]-1H-quinolin-2-one (Compound (I)) and 9 kinds of antidepressants (serotonin reuptake inhibitors, or serotonin and norepinephrine reuptake inhibitors) on the immobility time was compared.\nAs the animal, ddY male mice (5 to 6-week-old) were used. Various antidepressants and Compound (I) or each vehicle were administered to the mice before the start of the test, the mice were placed in a cylindrical water tank, and immobility time during 2 min to 4 min after the start of swimming was measured by a behavior analysis apparatus with an infrared sensor (SCANET; Melquest Co., Ltd.).\nCompound (I) was dissolved in 1% lactic acid-physiological saline, and various antidepressants were suspended or dissolved in 5% gum arabic-distilled water and used. Various antidepressants (fluoxetine (75 mg/kg), escitalopram (60 mg/kg), paroxetine (10 mg/kg), sertraline (15 mg/kg), venlafaxine (15 mg/kg), milnacipran (30 mg/kg), fluvoxamine (75 mg/kg)) were orally administered 60 min before the start of the test, duloxetine (20 mg/kg) and desvenlafaxine (20 mg/kg) were orally administered 30 min before the start of the test, and Compound (I) (0.001 or 0.003 mg/kg) was intraperitoneally administered 15 min before the start of the test."}, "male ddY mice": {"test_system": "male ddY mice", "experiment": "Mouse marble-burying behavior test", "format": "in vivo", "conditions": "Compound (I) 0.1 mg/kg p.o., 30 min before test, n=10", "from_the_text": "Marble-burying behavior test is a behavioral evaluation test utilizing the behavior of a mouse to bury marbles on the bedding. Since this characteristic behavior of burying harmless glass marbles in the bedding reflects the anxiety state of the animal, and is apparently similar to a compulsive act of obsessive-compulsive disorder patient, which is repeated with the recognition of irrationality, it is particularly considered a model of obsessive-compulsive disorder^1),2),3),4).\nAs the animal, male ddY mice (6- to 7-week-old) were used. In the test, a plastic cage (26×32×17 cm) was filled with chips to about 5 cm deep in a soundproof room, and 25 marbles (diameter 15 mm, weight about 6 g) were placed thereon at equal distances. Each mouse was orally administered with Compound (I) simultaneously with an antianxiety drug or an antidepressant or a vehicle thereof, and 30 min later, each mouse was placed in a cage containing the marbles. 30 min later, the animal was taken out from the cage, and the number of marbles covered with chips by ⅔ or more was visually counted.\nCompound (I) (0.1 mg/kg) and various antidepressants (fluoxetine (10 mg/kg), paroxetine (10 mg/kg), sertraline (10 mg/kg), fluvoxamine (15 mg/kg)) were suspended in 5% gum arable-distilled water, and diazepam (antianxiety drug, 1 mg/kg) was diluted with physiological saline and used. All drugs and vehicles thereof were orally administered 30 min before the start of the test."}, "[1]": {"conditions": "Compound (I) 0.003 mg/kg i.p. 15 min before test, paroxetine 10 mg/kg p.o. 60 min before, n=10"}, "[2]": {"conditions": "Compound (I) 0.003 mg/kg i.p. 15 min before test, escitalopram 60 mg/kg p.o. 60 min before, n=10"}, "[3]": {"conditions": "Compound (I) 0.003 mg/kg i.p. 15 min before test, duloxetine 20 mg/kg p.o. 30 min before, n=7"}, "[4]": {"conditions": "Compound (I) 0.003 mg/kg i.p. 15 min before test, desvenlafaxin 20 mg/kg p.o. 30 min before, n=8"}, "[5]": {"conditions": "Compound (I) 0.003 mg/kg i.p. 15 min before test, milnacipran 30 mg/kg p.o. 60 min before, n=10"}, "[6]": {"conditions": "Compound (I) 0.003 mg/kg i.p. 15 min before test, sertraline 15 mg/kg p.o. 60 min before, n=7"}, "[7]": {"conditions": "Compound (I) 0.001 mg/kg i.p. 15 min before test, venlafaxine 15 mg/kg p.o. 60 min before, n=10"}, "[8]": {"conditions": "Compound (I) 0.003 mg/kg i.p. 15 min before test, fluoxetine 75 mg/kg p.o. 60 min before, n=10"}, "[9]": {"conditions": "Compound (I) 0.003 mg/kg i.p. 15 min before test, fluvoxamine 75 mg/kg p.o. 60 min before, n=10"}},
  "data": [
    {"molecule": "Fc1ccc([C@@H]2CCNC[C@H]2COc2ccc3c(c2)OCO3)cc1", "note": "[paroxetine]", "values": [
      {"measurement": "immobility time relative to control (%)", "setting": "ddY male mice; [1]", "value": 98, "unit": "%"},
      {"measurement": "number of marbles buried (average ± standard error)", "setting": "male ddY mice; paroxetine 10 mg/kg p.o.", "value": "8.5 ± 2.0"},
      {"measurement": "number of marbles buried relative to control (%)", "setting": "male ddY mice; paroxetine 10 mg/kg p.o.", "value": 60, "unit": "%"}
    ]},
    {"molecule": "CN(C)CCC[C@@]1(c2ccc(F)cc2)OCc2cc(C#N)ccc21", "note": "[escitalopram]", "values": [
      {"measurement": "immobility time relative to control (%)", "setting": "ddY male mice; [2]", "value": 95, "unit": "%"}
    ]},
    {"molecule": "CNCC[C@H](Oc1cccc2ccccc12)c1cccs1", "note": "[duloxetine]", "values": [
      {"measurement": "immobility time relative to control (%)", "setting": "ddY male mice; [3]", "value": 95, "unit": "%"}
    ]},
    {"molecule": "CN(C)CC(c1ccc(O)cc1)C1(O)CCCCC1", "note": "(centres unmarked) [desvenlafaxin, desvenlafaxine]", "values": [
      {"measurement": "immobility time relative to control (%)", "setting": "ddY male mice; [4]", "value": 95, "unit": "%"}
    ]},
    {"molecule": "CCN(CC)C(=O)C1(c2ccccc2)CC1CN", "note": "(centres unmarked) [milnacipran]", "values": [
      {"measurement": "immobility time relative to control (%)", "setting": "ddY male mice; [5]", "value": 97, "unit": "%"}
    ]},
    {"molecule": "CN1C(=O)CN=C(c2ccccc2)c2cc(Cl)ccc21", "note": "[diazepam]", "values": [
      {"measurement": "number of marbles buried (average ± standard error)", "setting": "male ddY mice; diazepam 1 mg/kg p.o.", "value": "12.8 ± 2.0"},
      {"measurement": "number of marbles buried relative to control (%)", "setting": "male ddY mice; diazepam 1 mg/kg p.o.", "value": 85, "unit": "%"}
    ]},
    {"molecule": "CN[C@H]1CC[C@@H](c2ccc(Cl)c(Cl)c2)c2ccccc21", "note": "[sertraline]", "values": [
      {"measurement": "immobility time relative to control (%)", "setting": "ddY male mice; [6]", "value": 91, "unit": "%"},
      {"measurement": "number of marbles buried (average ± standard error)", "setting": "male ddY mice; sertraline 10 mg/kg p.o.", "value": "7.5 ± 0.7"},
      {"measurement": "number of marbles buried relative to control (%)", "setting": "male ddY mice; sertraline 10 mg/kg p.o.", "value": 56, "unit": "%"}
    ]},
    {"molecule": "COc1ccc(C(CN(C)C)C2(O)CCCCC2)cc1", "note": "(centres unmarked) [venlafaxine]", "values": [
      {"measurement": "immobility time relative to control (%)", "setting": "ddY male mice; [7]", "value": 96, "unit": "%"}
    ]},
    {"molecule": "O=c1ccc2ccc(OCCCCN3CCN(c4cccc5sccc45)CC3)cc2[nH]1", "note": "[Compound (I), 7-[4-(4-benzo[b]thiophen-4-yl-piperazin-1-yl)butoxy]-1H-quinolin-2-one]", "values": [
      {"measurement": "immobility time relative to control (%)", "setting": "ddY male mice; [7]", "value": 99, "unit": "%"},
      {"measurement": "immobility time relative to control (%)", "setting": "ddY male mice; [4]", "value": 96, "unit": "%"},
      {"measurement": "immobility time relative to control (%)", "setting": "ddY male mice; [3]", "value": 98, "unit": "%"},
      {"measurement": "immobility time relative to control (%)", "setting": "ddY male mice; [2]", "value": 96, "unit": "%"},
      {"measurement": "immobility time relative to control (%)", "setting": "ddY male mice; [8]", "value": 100, "unit": "%"},
      {"measurement": "immobility time relative to control (%)", "setting": "ddY male mice; [9]", "value": 100, "unit": "%"},
      {"measurement": "immobility time relative to control (%)", "setting": "ddY male mice; [5]", "value": 101, "unit": "%"},
      {"measurement": "immobility time relative to control (%)", "setting": "ddY male mice; [1]", "value": 98, "unit": "%"},
      {"measurement": "immobility time relative to control (%)", "setting": "ddY male mice; [6]", "value": 87, "unit": "%"},
      {"measurement": "number of marbles buried (average ± standard error)", "setting": "male ddY mice; diazepam 1 mg/kg p.o.", "value": "14.4 ± 2.0"},
      {"measurement": "number of marbles buried relative to control (%)", "setting": "male ddY mice; diazepam 1 mg/kg p.o.", "value": 96, "unit": "%"},
      {"measurement": "number of marbles buried (average ± standard error)", "setting": "male ddY mice; fluoxetine 10 mg/kg p.o.", "value": "14.4 ± 2.0"},
      {"measurement": "number of marbles buried relative to control (%)", "setting": "male ddY mice; fluoxetine 10 mg/kg p.o.", "value": 82, "unit": "%"},
      {"measurement": "number of marbles buried (average ± standard error)", "setting": "male ddY mice; fluvoxamine 15 mg/kg p.o.", "value": "14.0 ± 1.6"},
      {"measurement": "number of marbles buried relative to control (%)", "setting": "male ddY mice; fluvoxamine 15 mg/kg p.o.", "value": 86, "unit": "%"},
      {"measurement": "number of marbles buried (average ± standard error)", "setting": "male ddY mice; paroxetine 10 mg/kg p.o.", "value": "11.3 ± 1.5"},
      {"measurement": "number of marbles buried relative to control (%)", "setting": "male ddY mice; paroxetine 10 mg/kg p.o.", "value": 90, "unit": "%"},
      {"measurement": "number of marbles buried (average ± standard error)", "setting": "male ddY mice; sertraline 10 mg/kg p.o.", "value": "12.2 ± 2.2"},
      {"measurement": "number of marbles buried relative to control (%)", "setting": "male ddY mice; sertraline 10 mg/kg p.o.", "value": 91, "unit": "%"}
    ]},
    {"molecule": "CNCCC(Oc1ccc(C(F)(F)F)cc1)c1ccccc1", "note": "(centres unmarked) [fluoxetine]", "values": [
      {"measurement": "immobility time relative to control (%)", "setting": "ddY male mice; [8]", "value": 92, "unit": "%"},
      {"measurement": "number of marbles buried (average ± standard error)", "setting": "male ddY mice; fluoxetine 10 mg/kg p.o.", "value": "17.3 ± 1.5"},
      {"measurement": "number of marbles buried relative to control (%)", "setting": "male ddY mice; fluoxetine 10 mg/kg p.o.", "value": 98, "unit": "%"}
    ]},
    {"molecule": "COCCCC/C(=N\\OCCN)c1ccc(C(F)(F)F)cc1", "note": "[fluvoxamine]", "values": [
      {"measurement": "immobility time relative to control (%)", "setting": "ddY male mice; [9]", "value": 95, "unit": "%"},
      {"measurement": "number of marbles buried (average ± standard error)", "setting": "male ddY mice; fluvoxamine 15 mg/kg p.o.", "value": "13.5 ± 2.1"},
      {"measurement": "number of marbles buried relative to control (%)", "setting": "male ddY mice; fluvoxamine 15 mg/kg p.o.", "value": 83, "unit": "%"}
    ]}
  ]
}
